Reference: patent US20030229044A1, “Use of statins and other immunomodulatory agents in the treatment of autoimmune disease” (priority 2002, published 2003)
Entries after “also recorded” stand apart in the source; their conditions may differ.

Assays:
[1] = tested on: microglia and astrocytes; conditions: cited from earlier work
[2] = tested on: EAE in Lewis rats; assay: MBPp85-99-induced EAE in Lewis rats, ordered peptides; format: in vivo, rat; conditions: single intraperitoneal dose of 0.5 mg peptide on day of mean disease onset
Description: FIG. 8 is a graph depicting the prevention of EAE in rats treated with ordered peptides. […] Animals were injected with an emulsion of 0.1 mg of MBPp85-99 in complete Freund's adjuvant for EAE induction. Ten days later, when the clinical manifestations of disease became apparent, a single intra peritoneal dose of peptide {SEQ ID NO:4} […] (squares), {SEQ ID NO:5} […] (triangles), or PBS (circles) was administered. Results are expressed as mean disease score of groups of six animals.
Animals. Female Lewis rats (6-8 weeks old), were purchased from Harlan Sprague Dawley (Indianapolis, Ind.)
Peptides. For immunization and disease reversal, peptides were synthesized on a peptide synthesizer (model 9050: MilliGen, Burlington, Mass.) by standard 9-fuorenylmethoxycarbonyl chemistry. Peptides were purified by HPLC. Structure was confirmed by amino acid analysis and mass spectroscopy. Peptides used for the experiments were: {SEQ ID NO:11} […] (MBPp85 99), {SEQ ID NO:4} […], {SEQ ID NO:5} […].
EAE induction. […] Rats were injected subcutaneously with 0.1 mi of the peptide emulsion.
EAE treatment. Rats previously immunized with MBPp85-99 for EAE induction were scored from day eight after peptide injection. On the day of mean disease onset, animals were injected intraperitoneally with a solution of 0.5 mg of peptide in PBS (one dose of 0.25 ml).

[3] = tested on: lymph node cells and spleen cells from EAE donors; assay: Cytokine profile determination by ELISA; format: cell-based, mouse
Description: Cytokine Profile Determination. Lymph node cells and spleen cells from EAE donors were stimulated in vitro (2.5×10^6 cells/ml) in 24-well plates with or without the encephalogenic peptide or with […] as positive control. Cell culture supernatants were collected at different time points for measurements of cytokine levels: 48 hours for IL-2, 72 hours for IFN-γ and TNF α, and 120 hours for IL-4 and IL-10. Cytokine levels were determined using specific ELISA kits for the corresponding cytokines according to the manufacturers protocols (PharMingen, San Diego, Calif., USA).

[4] = tested on: MBP Ac1-11-induced EAE in MBP Ac1-11 TCR Tg mice; assay: MBP Ac1-11-induced acute EAE in MBP Ac1-11 Tg mice; format: in vivo, mouse
From the text: (§1) Animals. Female SJL/J, B10.PL and C57BL/6 mice (8 to 12-week-old) were purchased from the Jackson Laboratory (Bar Harbor, Me.). MBP Ac 1-11 transgenic (tg) TCR mice were backcrossed with B10.PL mice to obtain susceptibility to EAE. All animal protocols were approved by the Division of comparative Medicine at Stanford and in accordance with the National Institutes of Health guidelines.
(§2) Peptides. Peptides were synthesized on a peptide synthesizer (model 9050; MilliGen, Burlington, Mass.) by standard 9-fluorenylmethoxycarbonyl chemistry. Peptides were purified by HPLC. Structures were confirmed by amino acid analysis and mass spectroscopy.
EAE Induction. […] All peptides were dissolved in PBS at a concentration of 2 mg/ml and emulsified with an equal volume of CFA, which consists of incomplete Freund's adjuvant supplemented with 4 mg/ml heat-killed mycobacterium tuberculosis H37Ra (Difco Laboratories, Detroit, Mich.). Mice were injected subcutaneously with 0.1 ml of the peptide emulsion. […] Mice were clinically scored as follows: 0, no paralysis; 1, tail weakness or paralysis; 2, hindlimb weakness or paralysis; 3, hindlimb paralysis and forelimb weakness; 4, hindlimb and forelimb paralysis; and 5, moribund or death. […]

[5] = tested on: PLP p139-151-stimulated spleen and lymph node cells; assay: Ag specific ex-vivo T cell proliferation assay; format: cell-based, mouse
From the text: Ag specific ex-vivo T cell proliferation assay.

[6] = tested on: MOG p35-55-induced EAE in C57BL/6 mice; assay: MOG p35-55-induced chronic EAE in C57BL/6 mice; format: in vivo, mouse
From the text: as §1, §2
(§3) EAE Induction. Relapsing remitting EAE was induced in SJL/J mice with 100 μg of PLP139-151 peptide, chronic progressive EAE was induced either in C57BL/6 or MBP Ac1-11 TCR Tg mice with 100 μg of MOG35-55 peptide or 100 μg of MBP Ac1-11 peptide, respectively. All peptides were dissolved in PBS at a concentration of 2 mg/ml and emulsified with an equal volume of CFA, which consists of incomplete Freund's adjuvant supplemented with 4 mg/ml heat-killed mycobacterium tuberculosis H37Ra (Difco Laboratories, Detroit, Mich.). […] Mice were clinically scored as follows: 0, no paralysis; 1, tail weakness or paralysis; 2, hindlimb weakness or paralysis; 3, hindlimb paralysis and forelimb weakness; 4, hindlimb and forelimb paralysis; and 5, moribund or death. […]

[7] = tested on: STAT6; assay: Western blot for STAT6 phosphorylation in draining lymph node cells; format: in vivo, mouse; conditions: lymph nodes of SJL/J mice, 1 mg/kg and 10 mg/kg, 10 days after EAE induction; PBS: none detectable
Description: All procedures were handled on ice. As a positive control, lymph node cells from naive mice were isolated and cultured for one hour with mouse recombinant IL-4 (10 ng/ml) or INF-γ (100 units/ml), for STAT6 and STAT4 expression respectively. Protein concentrations were determined by BCA protein assay (Pierce). Lysate was added to 3×SDS loading buffer (Cell Signaling Technology) with 40 mM DTT. Products were separated by electrophoresis on a 4-15% SDS-PAGE gradient gel (BioRad). Pre-stained markers (Invitrogen) were used to determine MW. Gels were blotted to PVDF membranes at 100 V in 25 mM Tris, 192 mM glycine and 20% (v/v) methanol, then blocked 1 hr at RT with Tris-buffered saline (TBS) containing 0.1% Tween-20 and 5% nonfat dry milk. After washing in TBS and 0.1% Tween 20, membranes were hybridized overnight at 4° C. with anti-phospho-STAT6 Antibody or anti-phospho-STAT4 antibody (Zymed, South San Francisco, Calif.) diluted 1:1000 in TBS, 0.1% Tween 20 and 5% BSA, the membranes were then processed by ECL Plus prebetween protocol (Amersham Life Sciences) for visualization of the bands by chemiluminescence. […]

[8] = tested on: PLP p139-151-induced EAE in SJL/J mice; assay: PLP p139-151-induced chronic relapsing EAE in SJL/J mice; format: in vivo, mouse
From the text: as §1, §2, §3

[9] = tested on: MHC II expression (CIITA p IV gene); conditions: through the effect on the CIITA p IV gene; cited from earlier work
[10] = tested on: NOD mice; conditions: as proteins, under tolerizing conditions; cited from earlier work
[11] = ELISA, SJL/J mice, 1 and 10 mg/kg

CC[C@H](C)C(=O)O[C@H]1C[C@@H](C)C=C2C=C[C@H](C)[C@H](CC[C@@H]3C[C@@H](O)CC(=O)O3)[C@H]21 [lovastatin]
production of iNOS and proinflammatory cytokines [1]: inhibited production of nitric oxide synthase (iNOS) and proinflammatory cytokines (TNFα, IL-1β and IL-6)

EYYKEYYKEYYK [ordered peptide with repeated motif EYYK]
EAE in Lewis rats (mean disease score) [2]: effective in preventing and treating experimental autoimmune encephalomyelitis; also recorded: effectively prevent and treat EAE in Lewis rats; also recorded: prevents the development of EAE

CC(C)c1c(C(=O)Nc2ccccc2)c(-c2ccccc2)c(-c2ccc(F)cc2)n1CC[C@@H](O)C[C@@H](O)CC(=O)O [atorvastatin]
secretion of IL-10 ([3]; ELISA, SJL/J mice): observed at the higher treatment dose | IL-4 production [3, 11]: induced at both treatment doses | Production of IL-2 [3, 11]: reduced, although to a much greater extent in mice treated with 10 mg/kg | secretion of IFN-γ ([3]; ELISA, SJL/J mice, both treatment doses): dramatic reduction | Th2 bias (proliferation and cytokines) ([3]; repeated in C57BL/6 and MBP Ac1-11-specific transgenic mice): promoted an almost identical Th2 bias | acute EAE progression [4]: successfully prevented acute EAE progression | PLP p139-151-specific proliferative responses ([5]; 3H-thymidine incorporation, SJL/J mice treated with 1 or 10 mg/kg): suppressed in a dose-related fashion | cell death ([5]; in vitro cultures of cells from treated mice): not observed increased cell death | EAE (mean EAE score) ([6]; daily oral 1 mg/kg or 10 mg/kg starting at the time of EAE onset, C57Bl/6 female mice): suppressed EAE induction | EAE (mean EAE score) ([6]; treatment after onset, C57Bl/6 mice): ameliorated EAE | phosphorylated STAT6 [7]: phosphorylated STAT6 is seen | relapsing EAE (mean EAE score) ([8]; treatment at onset): effective in prevention of relapsing EAE | ongoing relapsing EAE (mean EAE score) ([8]; treatment begun after recovery from acute EAE): reversal of ongoing relapsing EAE | expression of MHC II [9]: could inhibit the expression of MHC II

insulin
diabetes in NOD mice [10]: prevents disease
